Laboratory results taken from patent publication US20210308188A1, “CELL CLUSTER INCLUDING OLFACTORY NEURON OR PRECURSOR CELL THEREOF, AND METHOD FOR PRODUCING SAME” (SUMITOMO CHEMICAL COMPANY, LIMITED, priority 2018, published 2021).

Assays:
Assay type in all cases: cell-based
human iPS cells [1] = test: Study for first Wnt signaling pathway inhibitory substance in cell cluster production (Experiment 9); conditions: added from start of suspension culturing (IWP-2, IWP-3, IWP-4 2 μM; Wnt C-59 20 nM; KY02111 1 μM); BMP4 on day 2; day 28
Experimental: In Experiment 9, a study of cell cluster production efficiency was performed for the type of the first Wnt signaling pathway inhibitory substance, using human iPS cells. The experiments were performed in accordance with the procedures shown in the upper section of FIG. 22, and the same manipulations as in Experiment 3 were performed except for those specifically indicated. The suspension culturing of the human iPS cells subjected to maintenance culturing and step (a) was started in a medium supplemented with a first Wnt signaling pathway inhibitory substance, Y27632 (final concentration 20 μM) and SB-431542 (final concentration 1 μM).
As the first Wnt signaling pathway inhibitory substance, IWP-2 (manufactured by Tocris Biosciences, final concentration 2 μM), IWP-3 (manufactured by Cayman Chemicals, final concentration 2 μM), IWP-4 (manufactured by Cayman Chemicals, final concentration 2 μM), Wnt C-59 (manufactured by Cayman Chemicals, final concentration 20 nM), or KY02111 (manufactured by Cayman Chemicals, final concentration 1 μM) was used. As a control in which the first Wnt signaling pathway inhibitory substance was not added, DMSO was added.
On day 2 after the start of suspension culturing, a serum-free medium being free of Y27632 and containing each first Wnt signaling pathway inhibitory substance, SB-431542 and BMP4 (final concentration 1.5 nM) was added at 100 μl per well. In addition, on day 3 after the start of suspension culturing, the medium was half exchanged with a serum-free medium being free of Y27632 and BMP4 and containing SB-431542, K02288, FGF2, Heparin Sodium, and EGF. K02288, FGF2, Heparin Sodium, EGF were included to final concentrations in the well were 10 μM, 20 ng/ml, 10 μg/ml and 20 ng/ml, respectively. On days 6, 10, 13, 17, 21, and 24 after the start of suspension culturing, the medium was half exchanged with a serum-free medium being free of Y27632 and BMP4 and containing each first Wnt signaling pathway inhibitory substance, SB-431542, K02288, FGF2, Heparin Sodium, and EGF.
On day 28 after the start of suspension culturing, bright-field observation was performed with an inverted microscope (FIGS. 22A to 22F).
The cell clusters on day 28 after the start of suspension culturing were subjected to immunofluorescence staining in accordance with the same method as in Comparative Experiment 1. As primary antibodies, an anti-Six1 antibody and an anti-pan-cytokeratin antibody staining placode and non-neural epithelial tissues, and an anti-Sox2 antibody staining placode and neural cells, described in Table 1, were used. As fluorescently labeled secondary antibodies, an Alexa488-labeled donkey anti-rabbit antibody, a CF555-labeled donkey anti-goat antibody, and an Alexa647-labeled donkey anti-mouse antibody, described in Table 2, were used to perform multiple staining. Hoechst 33342 was used for contrast staining of the nucleus. The positive and negative determinations of the staining results were performed in the same manner as in Preliminary Experiment 1.
Under the conditions in which the first Wnt signaling pathway inhibitory substance was not added, no non-neural epithelial tissue was formed on the surface of the cell aggregate even when BMP4 was added on day 2 after the start of suspension culturing.

human iPS cells [2] = test: Cell cluster production with EGF and second Wnt signaling pathway inhibitory substance (Experiment 6); conditions: EGF 20 ng/ml added on day 13 and XAV939 300 nM on day 17 (both added); day 28
Experimental: In Experiment 6, as shown in the upper section of FIG. 17, a cell cluster including an olfactory receptor neuron or a precursor cell thereof was produced by performing step (3c) as step (3) from the beginning, adding EGF from the middle of step (3c), and then culturing in the presence of XAV939 as a second Wnt signaling pathway inhibitory substance. The same manipulations as in Experiment 3 were performed except for those specifically indicated.
Specifically, steps (a), (1) and (2) were started with maintenance-cultured human iPS cells, and then, on day 3 after the start of suspension culturing, the medium was half exchanged with a serum-free medium being free of Y27632 and BMP4 and containing IWP-2, SB-431542, FGF2, Heparin Sodium and K02288 (start of step (3c)). FGF2, Heparin Sodium, and K02288 were included to be final concentrations in the well of 20 ng/ml, 10 μg/ml, and 1 μM, respectively. Thereafter, on days 6 and 10 after the start of suspension culturing, the medium was half exchanged with a serum-free medium being free of Y27632 and BMP4 and containing IWP-2, SB-431542, FGF2, Heparin Sodium and K02288. In addition, on day 13 after the start of suspension culturing, in addition to the above factors, EGF (manufactured by PrimeGene Co., Ltd.) was added to be a final concentration of 20 ng/ml. […]

[3] = test system: human iPS cell line HC-6 #10; test: Combination use of Wnt signaling pathway-activating substance and inhibitory substance in cell cluster production (Experiment 14)
Source text: Cell clusters were produced in accordance with the procedures shown in the upper section of FIG. 28 by using Wnt signaling pathway-activating substance and inhibitory substance in combination. Human iPS cells (HC-6 #10 cell line, obtained from the Institute of Physical and Chemical Research) were subjected to maintenance culturing and step (a) in the same manner as in Experiment 1. The suspension culturing was started on a 96-well culture plate in the same manner as in Experiment 1, except that the number of cells per well was 9×10^3 cells. At the start of suspension culturing (day 0 after the start of suspension culturing, start of step (1)), Y27632 (final concentration 20 μM), IWP-2 (final concentration 2 μM), and SB-431542 (final concentration 1 μM) were added to the serum-free medium. In addition, CHIR99021 (manufactured by Cayman Chemical, Inc.) was added as a Wnt signaling pathway-activating substance such that the final concentration was 300 nM. When the Wnt signaling pathway inhibitory substance IWP-2 and the Wnt signaling pathway-activating substance CHIR99021 are used in combination, β-catenin-dependent Wnt Canonical Pathway is activated and β-catenin-independent Wnt-non-Canonical Pathway is inhibited. On day 2 after the start of suspension culturing, a serum-free medium being free of Y27632 and containing SB-431542, BMP4, IWP-2 and CHIR99021 was added at 100 μl per well (start of step (2)). BMP4 was added to the medium at 3 nM to be a final concentration in the well of 1.5 nM. On day 3 after the start of suspension culturing, the medium was half exchanged with a serum-free medium being free of Y27632 and BMP4 and containing IWP-2, SB-431542, FGF2 and CHIR99021 (start of step (3a)). Thereafter, on days 6 and 10 after the start of suspension culturing, the medium was half exchanged with a serum-free medium being free of Y27632 and BMP4 and containing IWP-2, SB-431542, FGF2, CHIR99021, and K02288 (start of step (3c)). […]

[4] = CHIR99021 300 nM added together with IWP-2 2 μM, day 21

COc1ccccc1-n1c(SCC(=O)Nc2nc3ccc(C)cc3s2)nc2c(c1=O)SCC2 [IWP-4, N-(6-methyl-2-benzothiazolyl)-2-[[3,4,6,7-tetrahydro-3-(2-methoxyphenyl)-4-oxothieno[3,2-d]pyrimidin-2-yl]thio]-acetamide]
formation of aggregates having non-neural epithelial tissues on the surface (human iPS cells [1]): aggregates having non-neural epithelial tissues on the surface were formed

Cc1ccc2nc(NC(=O)CSc3nc4c(c(=O)n3-c3ccccc3)SCC4)sc2c1 [IWP-2, N-(6-Methyl-2-benzothiazolyl)-2-[(3,4,6,7-tetrahydro-4-oxo-3-phenylthieno[3,2-d]pyrimidin-2-yl)thio]-acetamide]
formation of aggregates having non-neural epithelial tissues on the surface (human iPS cells [1]): aggregates having non-neural epithelial tissues on the surface were formed

Cc1cc(-c2ccc(CC(=O)Nc3ccc(-c4cccnc4)cc3)cc2)ccn1 [Wnt C-59, 2-[4-(2-Methylpyridin-4-yl)phenyl]-N-[4-(pyridin-3-yl)phenyl]acetamide]
formation of aggregates having non-neural epithelial tissues on the surface (human iPS cells [1]): aggregates having non-neural epithelial tissues on the surface were formed

EGF: EGF signaling pathway-activating substance, manufactured by PrimeGene (NSDSECPLSHDGYCLHDGVCMYIEALDKYACNCVVGYIGERCQYRDLKWWELR; Epidermal growth factor; UniProt P01133 971-1023, looked up)
stability of non-neural epithelial tissue part including olfactory receptor neuron or precursor cell versus conditions without addition (human iPS cells [2]): more stable

COc1ccc(CCC(=O)Nc2nc3ccc(Cl)cc3s2)cc1OC [KY02111, N-(6-Chloro-2-benzothiazolyl)-3,4-dimethoxybenzenepropanamide]
formation of aggregates having non-neural epithelial tissues on the surface (human iPS cells [1]): aggregates having non-neural epithelial tissues on the surface were formed

O=c1[nH]c(-c2ccc(C(F)(F)F)cc2)nc2c1CSCC2 [3,5,7,8-Tetrahydro-2-[4-(trifluoromethyl)phenyl]-4H-thiopyrano[4,3-d]pyrimidin-4-one]
stability of non-neural epithelial tissue part including olfactory receptor neuron or precursor cell versus conditions without addition (human iPS cells [2]): more stable

Cc1ccc2nc(NC(=O)CSc3nc4c(c(=O)n3-c3ccc(F)cc3)SCC4)sc2c1 [IWP-3, 2-[[3-(4-fluorophenyl)-3,4,6,7-tetrahydro-4-oxothieno[3,2-d]pyrimidin-2-yl]thio]-N-(6-methyl-2-benzothiazolyl)-acetamide]
formation of aggregates having non-neural epithelial tissues on the surface (human iPS cells [1]): aggregates having non-neural epithelial tissues on the surface were formed

Cc1c[nH]c(-c2cnc(NCCNc3ccc(C#N)cn3)nc2-c2ccc(Cl)cc2Cl)n1 [CHIR99021]
formation of olfactory epithelial-like tissue on the external of the cell cluster [3, 4]: formed an olfactory epithelial-like tissue on the external of the cell cluster | number of dead cells in neural tissues inside of the cell clusters [3, 4]: reduced | extent of CHIR99021 at which Wnt-Canonical Pathway activity promotes survival of nervous tissues inside of the cell cluster and epithelial formation ([3]; combination with IWP-2): ≤ 3 µM
